This note sets out measurements from ChEMBL document CHEMBL4414634, “Alternatone A, an Unusual Perylenequinone-Related Compound from a Soft-Coral-Derived Strain of the Fungus Alternaria alternata” (J Nat Prod, 2019).

Common to all, as to format: functional, cell-based
For assay [1], the system named is HeLa. Briefly: Antiproliferative activity against human HeLa cells assessed as reduction in cell viability by MTT assay. Background: Tetrazolium dyes change colour on reduction, which living cells bring about.
Assay [2] has as its system A549. Briefly: Antiproliferative activity against human A549 cells assessed as reduction in cell viability by SRB assay.
Assay [3] has as its system HCT-116. Nature of the assay: Antiproliferative activity against human HCT116 cells assessed as reduction in cell viability by SRB assay.

Activity calls are given as the source filed them. No cut-off for these calls is given here.

Take `O=C1C[C@@H]2[C@@H]3C(=O)c4c(O)cccc4[C@@H]([C@@H]3O)[C@@H]2c2cccc(O)c21`: the result in assay [1], in assay [2] and in assay [3] was inactive.

As for `O=C1C[C@@H](O)[C@@H]2c3ccc(O)c4c3[C@@H](c3ccc(O)c1c32)[C@H](O)CC4=O`, the result in assay [1], in assay [2] and in assay [3] was inactive.

On to `O=C1C[C@H](O)[C@@H]2c3c(ccc(O)c31)-c1ccc(O)c3c1[C@@]2(O)C=CC3=O`, for which the IC50 stood at 3.1 µM in assay [1], 2600 nM in assay [2] and 2400 nM in assay [3].

For `O=C1C[C@H](O)[C@@H]2c3c(ccc(O)c31)-c1ccc(O)c3c1[C@@]2(O)CCC3=O`, the outcome in assay [1], in assay [2] and in assay [3] was inactive.

By IC50 is commonly meant the concentration that inhibits the measured activity by half.
